Source: patent US20250011365A1, “ECHINOCANDIN-BASED DRUG, AND PREPARATION METHOD THEREFOR AND USE THEREOF” (Shenzhen Sungening Biological Co., Ltd, priority 2023, published 2025)
Converted amounts (≈) assume the structure as drawn. Numbered stars: 1 amine (or outer) side, 2 acyl side, 3 side chain; on linkers, the order of the positions; unused ones are H or OH. Bridge positions count the residues as written; N and C are the ends. Square brackets hold non-standard residues; d marks the D form. Peptide text beside a SMILES is read from it. * marks the point of attachment. Orn(4R-OH,5R-OCH2CH2NMe3+) = C[N+](C)(C)CCO[C@@H](N[*:3])[C@H](O)C[C@H](N[*:1])C(=O)[*:2]; hTyr(3S-OH,4S-OH) = N[C@H](C(=O)O)[C@H](O)[C@@H](O)c1ccc(O)cc1; X2 = CCCCCOc1ccc(C#Cc2ccc3cc(C(=O)*)ccc3c2)c(F)c1F; X4 = CCCCCOc1c(F)cc(C#Cc2ccc3cc(C(=O)*)ccc3c2)cc1F; Pro(3S-OH,4S-Me) = C[C@H]1CN[C@H](C(=O)O)[C@H]1O; X3 = CCCCCOc1ccc(C#Cc2ccc3cc(C(=O)*)ccc3c2)cc1F; Hyp = O=C(O)[C@@H]1C[C@@H](O)CN1

How the values were obtained:
Type in all cases: cell-based
[1] = test system: Pichia guilliermondii ATCC 6260; assay: MIC assay, yeast-type fungi (CLSI M27-A3); details: Meyerozyma guilliermondii, ATCC6260, 24 h, 35° C.
Method: (§1) After gradient dilution of test compounds, an MIC assay was performed on a Candida standard strain, and an MEC assay was performed on an Aspergillus standard strain. […] A cryopreserved strain was passaged at least 2 times. A single colony was picked and resuspended in a physiological saline or sterile water tube, and the tube was subjected to vortex shaking. The Candida suspension was adjusted to 0.5 McF (1×10^6-5×10^6 CFU/mL) at a wavelength of 530 nm by using a spectrophotometer. After being diluted 50 times with physiological saline, the Candida suspension was diluted 20 times with 1×RPMI 1640 broth (1×10^3-5×10^3 CFU/mL). 10 μL of the diluted Candida suspension was coated on an SDA plate for colony counting, with a range of about 10-50 single colonies. After a prepared drug sensitive plate was completely dissolved at room temperature, the Candida suspension was added to the 96-well plate by using a multi-channel pipettor at 100 μL/well. At this time, the concentration of Candida in each well should be 0.5×10^3-2.5×10^3 CFU/mL. A yeast-type fungus assay plate was placed in an incubator, and incubated for 24 h at 35° C. and 85% humidity, and then the MIC values were read. For echinocandin-based drugs, Aspergillus was incubated for 21-26 h at 28° C., and then the MEC results were read. Yeast-type fungi: A 96-well plate was attached with a disposable parafilm, shaken for uniformly mixing, and observed with naked eyes by using a plate reader microscope. […] Pictures were taken and saved by using an automated plate reader.

[2] = test system: Candida albicans ATCC 14053; assay: MIC assay, Candida standard strain (CLSI M27-A3); details: ATCC14053, 24 h, 35° C.
Method: as §1

[3] = test system: Candida albicans ATCC MYA-574; assay: MIC assay, Candida standard strain (CLSI M27-A3); details: 24 h, 35° C.
Method: as §1

[4] = test system: Candida albicans ATCC 64124; assay: MIC assay, Candida standard strain (CLSI M27-A3); details: ATCC64124, 24 h, 35° C.
Method: as §1

[5] = test system: Candida albicans ATCC 90028; assay: MIC assay, Candida standard strain (CLSI M27-A3); details: ATCC90028, 24 h, 35° C., >50% growth inhibition
Method: as §1

[6] = test system: Candida albicans ATCC 90029; assay: MIC assay, Candida standard strain (CLSI M27-A3); details: ATCC90029, 24 h, 35° C.
Method: as §1

C. glabrata ATCC 15126 = assay: MIC assay, Candida standard strain (CLSI M27-A3); details: Nakaseomyces glabratus, ATCC15126, 24 h, 35° C.
Method: as §1

[7] = test system: Candida albicans CICC 1943; assay: MIC assay, Candida standard strain (CLSI M27-A3); details: CICC1943, 24 h, 35° C.
Method: as §1

C. tropicalis ATCC 750 = assay: MIC assay, Candida standard strain (CLSI M27-A3); details: ATCC750, 24 h, 35° C.
Method: as §1

[8] = test system: Candida albicans ATCC MYA-2876; assay: MIC assay, Candida standard strain (CLSI M27-A3); details: 24 h, 35° C.
Method: as §1

[9] = test system: Candida albicans CMCC 98001; assay: MIC assay, Candida standard strain (CLSI M27-A3); details: CMCC98001, 24 h, 35° C.
Method: as §1

[10] = test system: Candida albicans ATCC MYA-427; assay: MIC assay, Candida standard strain (CLSI M27-A3); details: 24 h, 35° C.
Method: as §1

[11] = test system: Candida albicans ATCC MYA-4788; assay: MIC assay, Candida standard strain (CLSI M27-A3); details: 24 h, 35° C.
Method: as §1

[12] = test system: Candida albicans ATCC 18804; assay: MIC assay, Candida standard strain (CLSI M27-A3); details: ATCC18804, 24 h, 35° C.
Method: as §1

C. krusei ATCC 6258 = assay: MIC assay, Candida standard strain (CLSI M27-A3); details: Pichia kudriavzevii, ATCC6258; C. krusei ATCC 6258 (quality-control strain); 24 h, 35° C.
Method: as §1

[13] = test system: Candida albicans ATCC MYA-1023; assay: MIC assay, Candida standard strain (CLSI M27-A3); details: 24 h, 35° C.
Method: as §1

[14] = test system: Candida albicans ATCC 10231; assay: MIC assay, Candida standard strain (CLSI M27-A3); details: ATCC10231, 24 h, 35° C., >50% growth inhibition
Method: as §1

[15] = test system: C. parapsilosis ATCC 22019; assay: MIC assay, Candida standard strain (CLSI M27-A3); details: Lodderomyces parapsilosis, ATCC22019; C. parapsilosis ATCC 22019 (quality-control strain); 24 h, 35° C.
Method: as §1

[16] = test system: Candida albicans ATCC 76485; assay: MIC assay, Candida standard strain (CLSI M27-A3); details: ATCC76485, 24 h, 35° C.
Method: as §1

[17] = test system: Aspergillus fumigatus ATCC 204305; assay: MEC assay, Aspergillus standard strain (CLSI M38-A2); details: 21-26 h, 28° C.
Method: After gradient dilution of test compounds, an MIC assay was performed on a Candida standard strain, and an MEC assay was performed on an Aspergillus standard strain.
The colonies on the plate were covered with 0.85% physiological saline (1 mL) or sterile water (polysorbate 20 was added to a final concentration of 0.1%-0.01%). […] The resuspension of spore hyphae was transferred to a sterile test tube, and left to stand for 3-5 min to precipitate heavier particles. The homogeneous suspension on the upper layer was transferred to a new sterile test tube, and the tube was capped closely, and subjected to vortex shaking for 15 s (note: the suspension can produce an aerosol when the cap is reopened). The concentration of the suspension was adjusted to an OD value of 0.09-0.13 at 530 nm by using a spectrophotometer. […] Within 2 h after dilution, 100 μL of the diluted suspension was added to each well in a 96-well plate (the concentration of spores in the final drug sensitive plate should be 0.4×10^4-5×10^4 CFU/mL).
In order to accurately determine MEC value, vortex oscillation should not be allowed before reading the plate.

[18] = test system: Cryptococcus neoformans ATCC 208821; assay: MIC assay, yeast-type fungi (CLSI M27-A3); details: ATCC208821, 24 h, 35° C.

Row | Compound | MIC [1] [µg/mL] | MIC [2] [µg/mL] | MIC [3] [µg/mL] | MIC [4] [µg/mL] | MIC [5] [µg/mL] | MIC [6] [µg/mL] | MIC (C. glabrata ATCC 15126) [µg/mL] | MIC [7] [µg/mL] | MIC (C. tropicalis ATCC 750) [µg/mL] | MIC [8] [µg/mL] | MIC [9] [µg/mL] | MIC [10] [µg/mL] | MIC [11] [µg/mL] | MIC [12] [µg/mL] | MIC (C. krusei ATCC 6258) [µg/mL] | MIC [13] [µg/mL] | MIC [14] [µg/mL] | MIC [15] [µg/mL] | MIC [16] [µg/mL] | MEC [17] [µg/mL] | other results
1 | CC[C@H](C)C[C@H](C)CCCCCCCCC(=O)N[C@H]1C[C@@H](O)[C@@H](NCCN)NC(=O)[C@@H]2[C@@H](O)CCN2C(=O)[C@H]([C@H](O)CCN)NC(=O)[C@H]([C@H](O)[C@@H](O)c2ccc(O)cc2)NC(=O)[C@@H]2C[C@@H](O)CN2C(=O)[C@H]([C@@H](C)O)NC1=O [Caspofungin, reference compound] | 0.12 (≈ 0.11 µM) | 0.03 (≈ 0.0274 µM) | ≤ 0.015 | 0.12 (≈ 0.11 µM) | 0.12 (≈ 0.11 µM) | 0.06 (≈ 0.0549 µM) | 0.12 (≈ 0.11 µM) | 0.06 (≈ 0.0549 µM) | 0.06 (≈ 0.0549 µM) | 0.06 (≈ 0.0549 µM) | 0.06 (≈ 0.0549 µM) | 0.12 (≈ 0.11 µM) | 0.06 (≈ 0.0549 µM) | 0.06 (≈ 0.0549 µM) | 0.25 (≈ 0.229 µM) | 0.06 (≈ 0.0549 µM) | 0.12 (≈ 0.11 µM) | 0.5 (≈ 0.457 µM) | 0.06 (≈ 0.0549 µM) | 0.25 | MIC [18]: 16 µg/mL (≈ 14.6 µM)
2 | CCCCCOc1ccc(C#Cc2ccc3cc(C(=O)N[C@H]4C[C@@H](O)[C@@H](OCC[N+](C)(C)C)NC(=O)[C@@H]5[C@@H](O)[C@@H](C)CN5C(=O)[C@H]([C@@H](C)O)NC(=O)[C@H]([C@H](O)[C@@H](O)c5ccc(O)cc5)NC(=O)[C@@H]5C[C@@H](O)CN5C(=O)[C@H]([C@@H](C)O)NC4=O)ccc3c2)c(F)c1F [Example 8] (X2-[Orn(4R-OH,5R-OCH2CH2NMe3+)]T[Hyp][hTyr(3S-OH,4S-OH)]T[Pro(3S-OH,4S-Me)]; lactam 1-C) | 0.25 | ≤ 0.015 | ≤ 0.015 | ≤ 0.015 | ≤ 0.015 | ≤ 0.015 | 0.06 | 0.03 | ≤ 0.015 | ≤ 0.015 | ≤ 0.015 | 0.03 | ≤ 0.015 | ≤ 0.015 | 0.12 | ≤ 0.015 | 0.03 | 0.5 | ≤ 0.015 | 0.03 | MIC [18]: 8 µg/mL
3 | CCCCCOc1ccc(C#Cc2ccc3cc(C(=O)N[C@H]4C[C@@H](O)[C@@H](OCC[N+](C)(C)C)NC(=O)[C@@H]5[C@@H](O)[C@@H](C)CN5C(=O)[C@H]([C@@H](C)O)NC(=O)[C@H]([C@H](O)[C@@H](O)c5ccc(O)cc5)NC(=O)[C@@H]5C[C@@H](O)CN5C(=O)[C@H]([C@@H](C)O)NC4=O)ccc3c2)cc1F [Example 10] (X3-[Orn(4R-OH,5R-OCH2CH2NMe3+)]T[Hyp][hTyr(3S-OH,4S-OH)]T[Pro(3S-OH,4S-Me)]; lactam 1-C) | 0.25 | ≤ 0.015 | ≤ 0.015 | ≤ 0.015 | ≤ 0.015 | ≤ 0.015 | 0.06 | 0.03 | ≤ 0.015 | ≤ 0.015 | ≤ 0.015 | 0.03 | ≤ 0.015 | ≤ 0.015 | 0.06 | ≤ 0.015 | 0.03 | 0.5 | ≤ 0.015 | ≤0.015 | MIC [18]: 8 µg/mL
4 | CCCCCOc1c(F)cc(C#Cc2ccc3cc(C(=O)N[C@H]4C[C@@H](O)[C@@H](OCC[N+](C)(C)C)NC(=O)[C@@H]5[C@@H](O)[C@@H](C)CN5C(=O)[C@H]([C@@H](C)O)NC(=O)[C@H]([C@H](O)[C@@H](O)c5ccc(O)cc5)NC(=O)[C@@H]5C[C@@H](O)CN5C(=O)[C@H]([C@@H](C)O)NC4=O)ccc3c2)cc1F [Example 14] (X4-[Orn(4R-OH,5R-OCH2CH2NMe3+)]T[Hyp][hTyr(3S-OH,4S-OH)]T[Pro(3S-OH,4S-Me)]; lactam 1-C) | 0.25 | ≤ 0.015 | ≤ 0.015 | ≤ 0.015 | ≤ 0.015 | ≤ 0.015 | 0.06 | 0.03 | ≤ 0.015 | ≤ 0.015 | ≤ 0.015 | 0.03 | ≤ 0.015 | ≤ 0.015 | 0.06 | ≤ 0.015 | 0.03 | 0.25 | ≤ 0.015 | ≤0.015 | MIC [18]: 8 µg/mL
